SMILES strings stand for the structures.

Drawing on patent US11103497B2, “Treatment of imatinib resistant leukemia” (Wyeth LLC, priority 2007, dated 2021), this text covers melting point and adverse effects for 8 compounds.

Details in one data set: not given
Usually melting point stands for the temperature, or range, at which the solid turns liquid. For the compound `CCN1CCC(COc2cc3ncc(C#N)c(Nc4cc(OC)c(Cl)cc4Cl)c3cc2OC)CC1` [Example 9, 4-[(2,4-Dichloro-5-methoxyphenyl)amino]-7-[(1-ethylpiperidin-4-yl)methoxy]-6-methoxyquinoline-3-carbonitrile], the melting point was in the range of 192 to 195 °C.

`CCOc1cc2c(Nc3cc(OC)c(Cl)cc3Cl)c(C#N)cnc2cc1OCCCN1CCN(CC)CC1` [Example 12, 4-[(2,4-Dichloro-5-methoxyphenyl)amino]-6-ethoxy-7-[3-(4-ethylpiperazin-1-yl)propoxy]quinoline-3-carbonitrile] showed a melting point of 127 to 130 °C.

Take `CCOc1cc2c(Nc3cc(OC)c(Cl)cc3Cl)c(C#N)cnc2cc1OCCN1CCN(C)CC1` [Example 14, 4-[(2,4-Dichloro-5-methoxyphenyl)amino]-6-ethoxy-7-[2-(4-methyl-1-piperazinyl)ethoxy]quinoline-3-carbonitrile]: the melting point lay in the range of 141 to 143 °C.

`CCOc1cc2c(Nc3cc(OC)c(Cl)cc3Cl)c(C#N)cnc2cc1OCCCC1CCN(C)CC1` [Example 13, 4-[(2,4-Dichloro-5-methoxyphenyl)amino]-6-ethoxy-7-[3-(1-methylpiperidin-4-yl)propoxy]quinoline-3-carbonitrile]: the melting point was 148 to 151 °C.

Regarding `CCOc1cc2c(Nc3cc(OC)c(Cl)cc3Cl)c(C#N)cnc2cc1OCCC1CCN(C)CC1` [Example 15, 4-[(2,4-Dichloro-5-methoxyphenyl)amino]-6-ethoxy-7-[2-(1-methylpiperidin-4-yl)ethoxy]quinoline-3-carbonitrile], the melting point lay in the range of 174 to 176 °C.

`CCOc1cc2c(Nc3cc(OC)c(Cl)cc3Cl)c(C#N)cnc2cc1OCCCN1CCN(C)CC1` [Example 10, 4-[(2,4-Dichloro-5-methoxyphenyl)amino]-6-ethoxy-7-[3-(4-methylpiperazin-1-yl)propoxy]quinoline-3-carbonitrile] came in with a melting point of 137 to 138 °C.

Regarding `COc1cc(Nc2c(C#N)cnc3cc(OCCN4CCN(C)CC4)c(OC)cc23)c(Cl)cc1Cl` [Example 4, 4-[(2,4-Dichloro-5-methoxyphenyl)amino]-6-methoxy-7-[2-(4-methyl-1-piperazinyl)ethoxy]-3-quinolinecarbonitrile], the melting point lay within 165 to 167 °C.

The conditions of a further data set: patients; cited from earlier work.
On to `Cc1nc(Nc2ncc(C(=O)Nc3c(C)cccc3Cl)s2)cc(N2CCN(CCO)CC2)n1` [Dasatinib], for which the adverse effects entry was “hematologic toxicity and edema”.
